In brackets after ≈: the same amount, converted by molar mass. Where two headings read alike, the source gives them in different places.
Key:
P. aeruginosa ATCC 27853 = assay: Broth microdilution MIC in CAMHB; assay type: cell-based; settings: Pseudomonas aeruginosa, ATCC27853; MHB; read-out: Minimum Inhibitory Concentration, P. aeruginosa ATCC 27853
Method: (§1) Example III: In Vitro Antibacterial Assays
(§2) To determine the ability of test compounds to inhibit the growth of bacterial strains, classic cell based broth microdilution minimum inhibitory concentration (MIC) assays were employed. MIC assays are performed according to CLSI methods except where otherwise noted (CLSI, 2018 and CLSI, 2019). The reference type strain E. coli ATCC 25922; the wild-type parent strain E. coli AG100; the hyper-permeable E. coli 901C and E. coli D22; and the E. coli AG100A strain lacking the acrAB efflux pump encoding genes were used to determine the ability of the PBP inhibitors to penetrate the outer membrane of gram-negative bacteria and inhibit bacterial growth. […] The P. aeruginosa ATCC 27853 and A. baumannii ATCC 19606, along with the hyper-permeable P. aeruginosa ATCC 35151 and an engineered efflux pump-compromised strain of P. aeruginosa (ΔmexAB-oprM) were used to determine the ability of PBP inhibitors to penetrate the outer membrane of P. aeruginosa and A. baumannii and assess antibacterial activity against these important gram-negative organisms.
(§3) Briefly, cryo-preserved bacterial cultures of challenge strains are streaked for isolation on appropriate agar medium, in this case cation-adjusted Mueller Hinton agar. Following incubation to allow growth of the colonies, plates are sealed with parafilm and stored refrigerated for up to two weeks. For preparation of assay inoculum and to ensure low variability, at least 5 colonies are picked from the agar plates with an inoculating loop and aseptically transferred to a culture tube containing 3 mL of cation-adjusted Mueller Hinton broth (CAMHB). The broth culture is grown for 3-5 hours at 37° C. with shaking at 200 rpm. Meanwhile, 2-fold serial dilutions of test compounds are conducted in a 96-well plate with a final volume of 75 μL per well at 2-fold the final desired concentration. After the dilution plates are set up the growing cultures are then diluted in a cuvette containing CAMHB and the optical density is measured at 600 nm. The inoculum is diluted such that 75 μL of this culture in CAMHB results in a starting bacterial concentration of 2-8×10^5 CFU/mL when added to the dilution plates. The plates are incubated for 16-20 hours for Enterobacteriaceae and Pseudomonas and 20-24 hours for Acinetobacter at 37° C. The MIC values are read visually as the lowest concentration well with no bacterial growth.

A. baumannii ATCC 19606 = assay: Broth microdilution MIC in CAMHB; assay type: cell-based; settings: Acinetobacter baumannii, ATCC19606; MHB; read-out: Minimum Inhibitory Concentration, A. baumannii ATCC 19606
Method: as §1, §2, §3

P. aeruginosa ATCC 35151 = assay: Broth microdilution MIC in CAMHB; assay type: cell-based; settings: Pseudomonas aeruginosa, ATCC35151; MHB; hyper-permeable strain; read-out: Minimum Inhibitory Concentration, P. aeruginosa ATCC 35151
Method: as §1, §2, §3

[1] = system: P. aeruginosa (ΔmexAB-oprM); assay: Broth microdilution MIC in CAMHB; assay type: cell-based; settings: Pseudomonas aeruginosa, read-out: Minimum Inhibitory Concentration, P. aeruginosa ΔmexAB-OprM
Method: as §1, §2, §3

E. coli D22 = assay: Broth microdilution MIC in CAMHB; assay type: cell-based; settings: Escherichia coli, MHB, read-out: Minimum Inhibitory Concentration, E. coli D22
Method: as §1, §2, §3

E. coli 901C = assay: Broth microdilution MIC in CAMHB; assay type: cell-based; settings: Escherichia coli, MHB, read-out: Minimum Inhibitory Concentration, E. coli 901C
Method: as §1, §2, §3

[2] = system: K. pneumoniae UMM producing SHV-5 and KPC-2; assay: Broth microdilution MIC in CAMHB; assay type: cell-based; settings: Klebsiella pneumoniae, read-out: Minimum Inhibitory Concentration, K. pneumoniae UMM
Method: as §1, §2, §3

[3] = system: K. pneumoniae SI-117 producing VIM-1; assay: Broth microdilution MIC in CAMHB; assay type: cell-based; settings: Klebsiella pneumoniae, read-out: Minimum Inhibitory Concentration, K. pneumoniae SI-117
Method: as §1, §2, §3

E. coli AG100A = assay: Broth microdilution MIC in CAMHB; assay type: cell-based; settings: Escherichia coli, read-out: Minimum Inhibitory Concentration, E. coli AG100A
Method: as §1, §2, §3

E. coli ATCC 25922 = assay: Broth microdilution MIC in CAMHB; assay type: cell-based
Method: as §1, §2, §3

E. coli AG100 = assay: Broth microdilution MIC in CAMHB; assay type: cell-based; settings: Escherichia coli, MHB, read-out: Minimum Inhibitory Concentration, E. coli AG100
Method: as §1, §2, §3

[4] = system: K. pneumoniae 848844 producing SHV-11 and KPC-2; assay: Broth microdilution MIC in CAMHB; assay type: cell-based; settings: Klebsiella pneumoniae, read-out: Minimum Inhibitory Concentration, K. pneumoniae 848844
Method: as §1, §2, §3

P. aeruginosa PBP3 = target: T1, P. aeruginosa PBP3 (Pseudomonas aeruginosa, UniProt G3XD46); assay: Bocillin-FL fluorescence polarization competition binding assay, P. aeruginosa PBP3; settings: P. aeruginosa PBP3; assay validation with beta-lactams; read-out: EC50 (concentration of beta-lactam required to reduce the amount of PBP bound-Bocillin-FL by 50%)
T1 construct: made in house
T1 sequence (G3XD46 whole entry): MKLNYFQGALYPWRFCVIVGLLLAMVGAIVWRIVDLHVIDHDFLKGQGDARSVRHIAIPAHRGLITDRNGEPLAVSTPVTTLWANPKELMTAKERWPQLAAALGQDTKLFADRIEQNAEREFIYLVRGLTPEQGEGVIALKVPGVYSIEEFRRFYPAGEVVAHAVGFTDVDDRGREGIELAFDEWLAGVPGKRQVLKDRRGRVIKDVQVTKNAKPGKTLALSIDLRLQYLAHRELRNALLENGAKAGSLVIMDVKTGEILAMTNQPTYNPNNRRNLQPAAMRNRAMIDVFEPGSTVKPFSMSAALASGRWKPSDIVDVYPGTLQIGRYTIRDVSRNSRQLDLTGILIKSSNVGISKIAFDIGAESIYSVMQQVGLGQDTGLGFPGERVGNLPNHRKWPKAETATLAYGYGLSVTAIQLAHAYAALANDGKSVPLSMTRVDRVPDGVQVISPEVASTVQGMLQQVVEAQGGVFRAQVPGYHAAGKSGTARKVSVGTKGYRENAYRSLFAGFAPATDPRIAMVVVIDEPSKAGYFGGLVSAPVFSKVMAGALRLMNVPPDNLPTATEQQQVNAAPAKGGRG
Source text: Example I: Experimental Method for Penicillin-Binding Protein Binding Assays with Bocillin-FL Via Fluorescence Polarization
To determine the ability of boronic acid-based test PBP inhibitors to bind Penicillin Binding Proteins (PBPs), Bocillin-FL (fluorescently-labeled penicillin V; ThermoFisher Scientific) was used in a fluorescence polarization (FP) competition binding assay to assess inhibitor binding to PBP2, PBP3 or PBP4 from Escherichia coli (K12), PBP3 from Pseudomonas aeruginosa (PA01), PBP1a, PBP2 and PBP3 from Acinetobacter baumannii (ATCC 19606), and PBP2 from Neiserria gonorrheae (FA19). PBPs were cloned and purified as described previously (E. coli PBPs, King, D. T, et al., ACS Infectious Diseases 2015, 1, 175-184; P. aeruginosa PBP3, Han et. al., PNAS 2010, 107 (51), 22002-22007; A. baumannii PBPs, Penwell et. al., Antimicrob. Agents Chemother. 2015, 59 (3), 1680-1689; N. gonorrhoeae PBP2, Singh et. al., J Biol. Chem. 2019, 294 (38), 14020-14032). To establish assay conditions for competition binding, enzyme titration/saturation binding experiments were initially performed. Bocillin-FL was prepared at 0.2 μM in a buffer comprised of 50 mM Hepes (pH 8.0), 300 mM NaCl and 5% (v/v) glycerol for reactions with E. coli, P. aeruginosa and N. gonorrhoeae PBPs, and 25 mM Tris (pH 8.0), 200 mM NaCl and 10% (v/v) glycerol and 0.005% (v/v) Tween 20 for reactions with A. baumannii PBPs. Saturation binding was performed by mixing 40 μl of PBP solutions ranging in concentrations from 0-24 μM with 40 μl of the 0.2 μM Bocillin-FL solution, in individual wells of a black 384-well microplate. FP was measured immediately upon mixing (Excitation, 490 nm; Emission, 520 nm; g-factor, 0.96), using a Cytation3 (BioTek) microplate reader and measured continuously for up to 120 minutes. […] The competition binding assay (80 μl final volume) was validated using beta-lactams and PBPs at final concentrations of: 1.5 μM, E. coli PBP3; 0.75 μM, P. aeruginosa PBP3; 1 μM A. baumannii PBP1a; 2.5 μM A. baumannii PBP2; 0.2 μM A. baumannii PBP3; and […] N. gonorrhoeae PBP2. Bocillin-FL was at 0.1 μM (0.05 μM with A. baumannii PBP1a) and beta-lactam concentrations ranged from 0-1000 μM. […] Bocillin-FL was added and the FP immediately measured for up to 60 minutes (90 minutes for E. coli PBP2). […] The beta-lactam potency was reported as the concentration of beta-lactam required to reduce the amount of PBP bound-Bocillin-FL by 50% (EC50). […] Binding assays for boronic acid PBP inhibitors were performed in an identical fashion for the respective PBPs

[5] = Escherichia coli, ATCC25922; MHB; E. coli ATCC 25922; read-out: Minimum Inhibitory Concentration, E. coli 25922
[6] = wild-type parent strain E. coli AG100

## NCCCN1CCN(C(=O)N[C@H](C(=O)N[C@H]2Cc3cccc(C(=O)O)c3OB2O)c2cc(F)c(O)c(F)c2F)C(=O)C1=O (single isomer, unassigned) [Example 247]
P. aeruginosa ATCC 27853
  MIC: 8 to 16 µg/mL (≈ 13.2 to 26.3 µM)
A. baumannii ATCC 19606
  MIC: > 128 µg/mL
P. aeruginosa ATCC 35151
  MIC: < 0.25 µg/mL
[1]
  MIC: 2 to 4 µg/mL (≈ 3.29 to 6.59 µM)

## CCN1CCN(C(=O)NC(C(=O)N[C@H]2Cc3cccc(C(=O)O)c3OB2O)c2ccc(C(=O)O)c([N+](=O)[O-])c2)C(=O)C1=O (stereo partly drawn) [Example 220, (3R)-3-(2-(4-carboxy-3-nitrophenyl)-2-(4-ethyl-2,3-dioxopiperazine-1-carboxamido)acetamido)-2-hydroxy-3,4-dihydro-2H-benzo[e][1,2]oxaborinine-8-carboxylic acid]
E. coli D22; E. coli D22 (hyper-permeable)
  MIC: 32 to 64 µg/mL (≈ 53.6 to 107 µM)
E. coli 901C; E. coli 901C (hyper-permeable)
  MIC: > 128 µg/mL
[2]
  MIC: < 0.25 µg/mL
P. aeruginosa ATCC 27853
  MIC: > 128 µg/mL
[3]
  MIC: 2 to 4 µg/mL (≈ 3.35 to 6.7 µM)
E. coli AG100A
  MIC: 32 to 64 µg/mL (≈ 53.6 to 107 µM)
A. baumannii ATCC 19606
  MIC: > 128 µg/mL
E. coli ATCC 25922; Escherichia coli, ATCC25922; E. coli ATCC 25922; MHB; read-out: Minimum Inhibitory Concentration, E. coli 25922
  MIC: > 128 µg/mL
P. aeruginosa ATCC 35151
  MIC: 0.5 to 1 µg/mL (≈ 0.837 to 1.67 µM)
E. coli AG100; E. coli AG100 (wild-type parent)
  MIC: > 128 µg/mL
[4]
  MIC: 32 to 64 µg/mL (≈ 53.6 to 107 µM)
[1]
  MIC: 8 to 16 µg/mL (≈ 13.4 to 26.8 µM)

## C[C@H]1CN(CCF)C(=O)C(=O)N1C(=O)N[C@@H](C(=O)N[C@H]1Cc2cccc(C(=O)O)c2OB1O)c1ccc(O)c(F)c1F [Example 241, (3R)-3-(2-(2,3-difluoro-4-hydroxyphenyl)-2-((S)-4-(2-fluoroethyl)-6-methyl-2,3-dioxopiperazine-1-carboxamido)acetamido)-2-hydroxy-3,4-dihydro-2H-benzo[e][1,2]oxaborinine-8-carboxylic acid]
E. coli D22; hyper-permeable E. coli D22
  MIC: 32 to 64 µg/mL (≈ 54 to 108 µM)
E. coli 901C; hyper-permeable E. coli 901C
  MIC: > 128 µg/mL
[2]
  MIC: < 0.25 µg/mL
P. aeruginosa ATCC 27853
  MIC: > 128 µg/mL
[3]
  MIC: 2 to 4 µg/mL (≈ 3.38 to 6.75 µM)
E. coli AG100A
  MIC: 32 to 64 µg/mL (≈ 54 to 108 µM)
A. baumannii ATCC 19606
  MIC: > 128 µg/mL
E. coli ATCC 25922; [5]
  MIC: 8 to 16 µg/mL (≈ 13.5 to 27 µM)
P. aeruginosa ATCC 35151
  MIC: 2 to 4 µg/mL (≈ 3.38 to 6.75 µM)
E. coli AG100; [6]
  MIC: 32 to 64 µg/mL (≈ 54 to 108 µM)
[4]
  MIC: 32 to 64 µg/mL (≈ 54 to 108 µM)
[1]
  MIC: 2 to 4 µg/mL (≈ 3.38 to 6.75 µM)

## C[C@H]1CN(CCN)C(=O)C(=O)N1C(=O)N[C@@H](C(=O)N[C@H]1Cc2cccc(C(=O)O)c2OB1O)c1ccc(O)c(F)c1F [Example 242, (3R)-3-(2-((S)-4-(2-aminoethyl)-6-methyl-2,3-dioxopiperazine-1-carboxamido)-2-(2,3-difluoro-4-hydroxyphenyl)acetamido)-2-hydroxy-3,4-dihydro-2H-benzo[e][1,2]oxaborinine-8-carboxylic acid]
E. coli D22; hyper-permeable E. coli D22
  MIC: 8 to 16 µg/mL (≈ 13.6 to 27.2 µM)
E. coli 901C; hyper-permeable E. coli 901C
  MIC: 32 to 64 µg/mL (≈ 54.3 to 109 µM)
[2]
  MIC: 0.5 to 1 µg/mL (≈ 0.848 to 1.7 µM)
P. aeruginosa ATCC 27853
  MIC: > 128 µg/mL
[3]
  MIC: 2 to 4 µg/mL (≈ 3.39 to 6.79 µM)
E. coli AG100A
  MIC: 32 to 64 µg/mL (≈ 54.3 to 109 µM)
A. baumannii ATCC 19606
  MIC: > 128 µg/mL
E. coli ATCC 25922; [5]
  MIC: 8 to 16 µg/mL (≈ 13.6 to 27.2 µM)
P. aeruginosa ATCC 35151
  MIC: 0.5 to 1 µg/mL (≈ 0.848 to 1.7 µM)
E. coli AG100; [6]
  MIC: 32 to 64 µg/mL (≈ 54.3 to 109 µM)
[4]
  MIC: 32 to 64 µg/mL (≈ 54.3 to 109 µM)
[1]
  MIC: 8 to 16 µg/mL (≈ 13.6 to 27.2 µM)

## C[C@H]1[C@H](NC(=O)/C(=N\OC(C)(C)C(=O)O)c2csc(N)n2)C(=O)N1S(=O)(=O)O [aztreonam, reference compound]
P. aeruginosa PBP3
  EC50: < 500 nM

From patent US20230114728A1 (Venatorx Pharmaceuticals, Inc., priority 2019, published 2023)
